# Key:
# Alpha-galactosidase A = biological target: T1, Alpha-galactosidase A (Rattus norvegicus, UniProt D3ZJF9); assay: Inhibitory activity against alpha-galactosidase from rat epididymis.
# T1 sequence (D3ZJF9 whole entry): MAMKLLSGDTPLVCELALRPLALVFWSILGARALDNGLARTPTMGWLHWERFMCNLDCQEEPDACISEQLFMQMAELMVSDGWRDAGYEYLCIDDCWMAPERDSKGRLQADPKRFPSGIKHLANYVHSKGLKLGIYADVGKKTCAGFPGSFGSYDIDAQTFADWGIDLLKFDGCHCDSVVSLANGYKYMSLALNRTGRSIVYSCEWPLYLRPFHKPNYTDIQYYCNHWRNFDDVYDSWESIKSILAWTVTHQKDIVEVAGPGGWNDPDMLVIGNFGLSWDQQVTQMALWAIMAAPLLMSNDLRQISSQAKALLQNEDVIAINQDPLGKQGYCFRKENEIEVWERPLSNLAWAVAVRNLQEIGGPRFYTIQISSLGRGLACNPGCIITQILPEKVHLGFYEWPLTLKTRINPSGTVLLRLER
# Beta-galactosidase = biological target: T2, Beta-galactosidase (Bos taurus, UniProt Q58D55); assay: Inhibitory activity against beta-galactosidase from bovine liver
# T2 sequence (Q58D55 whole entry): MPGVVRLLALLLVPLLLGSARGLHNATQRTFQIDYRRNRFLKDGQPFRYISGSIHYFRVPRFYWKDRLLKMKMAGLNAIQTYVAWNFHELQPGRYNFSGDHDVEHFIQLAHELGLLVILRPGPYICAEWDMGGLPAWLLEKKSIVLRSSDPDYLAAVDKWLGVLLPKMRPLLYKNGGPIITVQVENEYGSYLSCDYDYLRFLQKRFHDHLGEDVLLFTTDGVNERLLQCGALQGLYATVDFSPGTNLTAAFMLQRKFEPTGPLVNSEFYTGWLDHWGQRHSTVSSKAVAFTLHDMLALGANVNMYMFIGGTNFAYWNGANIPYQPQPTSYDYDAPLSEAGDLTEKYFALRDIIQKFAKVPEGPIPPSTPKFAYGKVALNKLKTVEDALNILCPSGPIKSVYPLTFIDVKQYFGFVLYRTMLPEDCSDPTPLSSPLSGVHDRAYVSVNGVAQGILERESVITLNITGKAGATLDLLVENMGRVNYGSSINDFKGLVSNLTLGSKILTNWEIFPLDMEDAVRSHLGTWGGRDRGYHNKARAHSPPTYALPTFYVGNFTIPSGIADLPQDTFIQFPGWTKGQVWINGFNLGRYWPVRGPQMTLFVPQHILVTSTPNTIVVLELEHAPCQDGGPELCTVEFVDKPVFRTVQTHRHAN
IC50 (Alpha-galactosidase A),IC50 (Beta-galactosidase),Structure (SMILES)
4.5 µM,,OCC1NC(CO)[C@H](O)[C@@H](O)[C@@H]1O (stereo partly drawn)
67 µM,160 µM,"OC[C@H]1N[C@H](CO)[C@@H](O)[C@@H](O)C1O (single isomer, unassigned)"
